{"source": "patent US20250281610A1", "about": "“P2RY2 ACTIVITY MODULATORS” (Deutsches Krebsforschungszentrum Stiftung des öffentlichen …, priority 2022, published 2025)", "key": {"[1]": {"test_system": "MART-1-specific TCR transduced T cells cultured with MART-1-epitope transduced BxPC3 cells", "test": "T cell activation markers in co-culture of MART-1-specific TCR-T cells with MART-1+ BxPC3 cells", "format": "cell-based, human", "conditions": "single agent: 5 μM AR-C, 10 μg/ml atezolizumab or 10 μg/ml durvalumab, 6-24 hours, CD8+ MART-1-specific TCR+ population (FIG. 10)", "excerpt": "FIG. 10. […] Untreated cells served as the control.\n(§1) MART-1 specific T cells were generated as described (Mezzadra et al., Nature 549, 106-110 (2017); Jorritsma et al., Blood 110 (10): 3564-3572. (2007)). To generate CD33-specific chimeric antigen receptor (CAR) T cells, a CD33Hul95-CD28Z CAR (described in WO 2019/178382) cassette was cloned into a retroviral vector, and the resulting virus was used to transduce T cells as described (Mezzadra et al., Nature 549, 106-110 (2017); Jorritsma et al., Blood 110 (10): 3564-3572. (2007)).\nMART1-specific CD8+ T cells and MART1 epitope-expressing cancer cells were mixed at a ratio of 1:16 to 1:4. […] T cell activation was assessed by surface staining with anti-CD137-BV421 (4-1BB, Biolegend), anti-CD69-APC/Fire™ 750 (FN50, Biolegend), anti-CD25-AF700 (BC96, Biolegend) antibodies and intracellular staining with anti-IL-2-PE/Cy7 (MQ1-17H12, Biolegend), anti-IFN-7-BV421 (4S.B3, Biolegend), anti-TNF-α-BV785 (MAb11, Biolegend) antibodies, followed by flow cytometry analysis. For intracellular staining, brefeldin A (Biolegend) was added to the cell culture medium 4 h before cells were harvested. The viability of cancer cells that grow in suspension including THP-1 cells was assessed by flow cytometry-based absolute cell counting using AccuCount beads (Spherotech). For adherent cancer cells including BxPC3 and MCF7, the cell viability was quantified using CellTiter-Blue Cell Viability Assay (Promega)."}, "BxPC3 cells": {"test_system": "BxPC3 cells", "test": "Viability of BxPC3 cells in co-culture with MART-1-specific TCR-T cells (CellTiter-Blue)", "format": "cell-based, human", "conditions": "single agent: 5 μM AR-C, 10 μg/ml atezolizumab or 10 μg/ml durvalumab, 6-24 hours (FIG. 11)", "excerpt": "FIG. 11. […] Untreated cells served as the control.\nas §1\nMART1-specific CD8+ T cells and MART1 epitope-expressing cancer cells were mixed at a ratio of 1:16 to 1:4. Next, cells were centrifugated at 1,600 g for 3 min and incubated at 37° C. and 5% CO2 for 12-72 hours. T cell activation was assessed by surface staining with anti-CD137-BV421 (4-1BB, Biolegend), anti-CD69-APC/Fire™ 750 (FN50, Biolegend), anti-CD25-AF700 (BC96, Biolegend) antibodies and intracellular staining with anti-IL-2-PE/Cy7 (MQ1-17H12, Biolegend), anti-IFN-7-BV421 (4S.B3, Biolegend), anti-TNF-α-BV785 (MAb11, Biolegend) antibodies, followed by flow cytometry analysis. For intracellular staining, brefeldin A (Biolegend) was added to the cell culture medium 4 h before cells were harvested. The viability of cancer cells that grow in suspension including THP-1 cells was assessed by flow cytometry-based absolute cell counting using AccuCount beads (Spherotech). For adherent cancer cells including BxPC3 and MCF7, the cell viability was quantified using CellTiter-Blue Cell Viability Assay (Promega)."}}}
{"substance": "durvalumab: Blocking antibody of the PD-L1-PD-1 immune checkpoint", "values": [{"measurement": "expression of CD25 on T cells", "setting": "[1]", "value": "elevated"}, {"measurement": "expression of CD69 on T cells", "setting": "[1]", "value": "elevated"}, {"measurement": "expression of CD137 on T cells", "setting": "[1]", "value": "elevated"}, {"measurement": "viability of BxPC3 cells", "setting": "BxPC3 cells", "value": "reduced"}]}
